{"source": "patent US20030099677A1", "about": "“Cosmetic composition and method of treating skin” (Unilever Home & Personal Care USA, Division of Conopco. Inc., priority 2001, published 2003)", "format_in_all_cases": "cell-based", "key": {"[1]": {"test_system": "procollagen-I synthesis in human dermal fibroblasts", "test": "Dot blot assay for procollagen-I in dermal fibroblast conditioned medium", "settings": "for Pro-collagen: 24 hours, relative to vehicle treated control value of 100", "method": "(§1) Primary human foreskin fibroblasts at passage 2 (P2) were seeded into 12-well plates at 10000 cells/cm^2 and maintained for 24 hours in an atmosphere of 5% carbon dioxide and 4% oxygen in Dulbeccos Modified Eagles Medium (DMEM) supplemented with 10% foetal calf serum. After this time the cells were washed with serum free DMEM and then incubated in fresh serum free DMEM for a further 60 hours. The fibroblast monolayers were then washed again with serum free DMEM. Test reagents and vehicle controls were added to the cells in triplicate in a final volume of 0.4 ml/well fresh serum free DMEM and incubated for a further 24 hours. This fibroblast conditioned medium was either analysed immediately or snap frozen in liquid nitrogen and stored at −70° C. for future analysis. The cells were then counted and data from the dot-blot analysis subsequently standardised to cell number.\n(§2) Samples of conditioned medium from dermal fibroblasts treated with vehicle (as a control) or test reagents were supplemented with 20 mM dithiothreitol (1:10 dilution of 200 mM stock solution) and 0.1% sodium dodecylsulphate (1:100 dilution of 10% stock solution), mixed well and then incubated at 75° C. for 2 minutes. […]\n(§3) Following this the Immobilon strips were again washed with TBS/Tween 20 (3×5 minutes) before being allowed to dry in air at room temperature. […] Dot intensity was assessed by computer-assisted image analysis using the quantification tools in ImageQuant™, standardised to cell number and the effects of various test reagents on decorin and procollagen-I synthesis were determined relative to a vehicle treated control value of 100 arbitrary units.\n(§4) Tables 1 indicates the effects of trans-7-octadecanoic acid on procollagen-I and decorin synthesis in human dermal fibroblasts, and the amounts in which it was applied. In order to normalize the results the effects of the test substance was determined relative to a vehicle treated control value of 100 arbitrary units."}, "[2]": {"test_system": "Human foreskin keratinocytes", "test": "Pico Green DNA assay of keratinocyte extracts (proliferation)", "method": "(§5) […] The cells were grown for 3 days prior to treatment. The treatment vehicle was DMSO. After 4 days of treatment, the cells were harvested and washed three times with 100 μl phosphate buffered saline (PBS). The cells were then extracted in 1% Triton X100, 50 mM Tris pH 8.0, 0.02 mM Leupeptin, 0.02 mM Pepstatin. 60 μl/well extract was then assayed for DNA concentration (ng/well), Pico Green DNA assay, Molecular Probes."}, "[3]": {"test_system": "Transglutaminase activity in pigskin epidermis", "test": "In situ TGase assay in pig skin organ culture", "settings": "for Transglutaminase activity (fluorescence-background) Mean: pig organ culture, 48 hours", "method": "Porcine back skin was prepared by carefully removing subcutaneous fat and muscle resulting in a skin sample 3-4 mm thick. Hair was clipped and the skin was washed in water, removing any residual blood or dirt. The skin sample was cut into 7 cm×7 cm squares and incubated in 5% Dettol (sterile) for 1 hr at room temp (RT). It was then incubated in DMEM containing ABAM (5 mL/500 mL of medium) for 1 hr. Hydrocortisone 21-hemisuccinate (100îg/mL, sterile filtered) was added to DMEM+ABAM. Tripods and meshes were set up on petri dishes containing 3 ml of media (DMEM/ABAM/hydrocortisone), creating a negative meniscus. Punch biopsies were taken from the skin and placed onto the mesh (4 per dish), and then incubated for 24 hrs at 37° C., 5% CO2 before being treated. Media was changed daily.\nA stock solution of 10 mM Biotinylated monodansylcadaverine in 0.013M HCl was, and stored at −20° C. From the stock solution substrate buffer was prepared: 0.1 mM biotinylated monodansylcadaverine, 5 mM CaCl2 in 100 mM Tris HCl. 5 mM CaCl2 was replaced with 200 mM EDTA for a […] control.\nPig skin biopsies were snap frozen in liquid nitrogen and stored at −20° C. Sections were cut (5-8 microns thick, Brights cryostat) and air-dried for 10 minutes at room temperature (RT). The sections were incubated for 30 minutes at RT with 1% BSA in 0.1M Tris/HC1, pH 8.4 then incubated in substrate buffer for 2 hours at RT. The slides were washed to stop the reaction in 25 mM EDTA in PBS for 5 minutes, followed by two washes in PBS. The slides were then incubated in Alexa fluor 488 streptavidin (1:250) for 30 minutes at RT, then washed in PBS as before. The slides were counterstained with 10îg/ml propidium iodide for 10 seconds, then washed in water and mounted in prolong antifade solution. Sections were visualised using a Microscope (Leica, Leitz DMRB, Leitz ploemopak filter block L3, Milton Keynes, Bucks. UK) and images were captured using Image Grabber PC Software (Neotech Ltd. Eastleigh, Hampshire, UK). […]"}, "[4]": {"test_system": "decorin synthesis in human dermal fibroblasts", "test": "Dot blot assay for decorin in dermal fibroblast conditioned medium", "settings": "for Decorin: 24 hours, relative to vehicle treated control value of 100", "method": "as §1, §2, §3, §4"}, "[5]": {"test_system": "Human foreskin keratinocytes", "test": "Keratinocyte cornified envelope assay (marker of keratinocyte differentiation)", "method": "Method to Assess Effect of Active on Keratinocyte Cornified Envelope Production—a Marker of Keratinocyte Differentiation\nas §5\nThe cells were then washed in 200 μl PBS, and then 100 μl of 2% SDS, 20 mM DTT was added to each well. The plates were then sealed with a Titertek plate sealer (ICN) and incubated at 60° C. over night in an air-tight damp environment (i.e. a sealed sandwich box lined with damp paper). The extract was then filtered through a PVDF transfer membrane (Bio-rad) under gravity using Dot-Blot apparatus (Bio-rad). The membrane was then washed in distilled water prior to silver staining (Bio-rad Silver Stain kit). The stained dot blot membrane was then analyzed using Phoretix array software (Phoretix International)."}, "[6]": {"settings": "human dermal fibroblasts, statement in words"}, "[7]": {"settings": "Table 3, 1 μM, grown in 1.2 mM calcium"}, "[8]": {"settings": "Table 4, 0.001 μM, low calcium, P = 0.002"}}, "data": [{"smiles": "CCCCCCCCCC/C=C/CCCCCC(=O)O", "note": "[Trans-7-octadecanoic acid, trans-7-octadecanoic acid]", "values": [{"measurement": "Pro-collagen", "setting": "[1]; 0.1 μM", "result": 194.96, "unit": "arbitrary units"}, {"measurement": "Pro-collagen", "setting": "[1]; 1.0 μM", "result": 126.63, "unit": "arbitrary units"}, {"measurement": "effect on synthesis of procollagen-I as compared to the control", "setting": "[1]; [6]", "result": "significantly up-regulates"}, {"measurement": "DNA Mean", "setting": "[2]; Table 2, 1 μM, grown in 1.2 mM calcium, p < 0.05", "result": 9, "unit": "ng/well"}, {"measurement": "DNA Mean", "setting": "[2]; Table 2, 10 μM, grown in 1.2 mM calcium, p < 0.05", "result": 7, "unit": "ng/well"}, {"measurement": "DNA Mean", "setting": "[2]; Table 2, 50 μM, grown in 1.2 mM calcium", "result": 6, "unit": "ng/well"}, {"measurement": "DNA Mean", "setting": "[2]; Table 2, 100 μM, grown in 1.2 mM calcium", "result": 4, "unit": "ng/well"}, {"measurement": "DNA Mean", "setting": "[2]; Table 3, 0.1 μM, grown in 1.2 mM calcium, P < 0.05", "result": 5, "unit": "ng/well"}, {"measurement": "DNA Mean", "setting": "[2]; [7]", "result": 6, "unit": "ng/well"}, {"measurement": "DNA % control", "setting": "[2]; Table 4, 0.001 μM, low calcium", "result": 100, "unit": "% control"}, {"measurement": "DNA Mean", "setting": "[2]; Table 4, 0.001 μM, low calcium", "result": 1.41, "unit": "ng/well"}, {"measurement": "DNA % control", "setting": "[2]; Table 4, 0.01 μM, low calcium", "result": 100, "unit": "% control"}, {"measurement": "DNA Mean", "setting": "[2]; Table 4, 0.01 μM, low calcium", "result": 1.42, "unit": "ng/well"}, {"measurement": "effect on keratinocyte proliferation", "setting": "[2]; in high calcium, statement in words", "result": "proliferation enhancer"}, {"measurement": "Transglutaminase activity (fluorescence-background) Mean", "setting": "[3]; 0.1 μM", "result": 1908}, {"measurement": "effect on transglutamine cross linking activity", "setting": "[3]; 1 μM, intact pigskin epidermis, statement in words", "result": "induces transglutamine cross linking activity"}, {"measurement": "Transglutaminase activity (fluorescence-background) Mean", "setting": "[3]; 1 μM", "result": 2268}, {"measurement": "Decorin", "setting": "[4]; 1.0 μM", "result": "163.10 % of vehicle control"}, {"measurement": "Decorin", "setting": "[4]; 10.0 μM", "result": "134.04 % of vehicle control"}, {"measurement": "effect on synthesis of decorin as compared to the control", "setting": "[4]; [6]", "result": "significantly up-regulates"}, {"measurement": "Cornified Envelope Assay Mean", "setting": "[5]; Table 2, 1 μM, grown in 1.2 mM calcium, 4 days of treatment", "result": 57900}, {"measurement": "Cornified Envelope Assay Mean", "setting": "[5]; Table 2, 10 μM, grown in 1.2 mM calcium, 4 days of treatment", "result": 54689}, {"measurement": "Cornified Envelope Assay Mean", "setting": "[5]; Table 2, 50 μM, grown in 1.2 mM calcium, 4 days of treatment", "result": 49272}, {"measurement": "Cornified Envelope Assay Mean", "setting": "[5]; Table 2, 100 μM, grown in 1.2 mM calcium, 4 days of treatment", "result": 42110}, {"measurement": "Cornified Envelope Assay Mean", "setting": "[5]; Table 3, 0.1 μM, grown in 1.2 mM calcium", "result": 37930}, {"measurement": "Cornified Envelope Assay Mean", "setting": "[5]; [7]", "result": 47773}, {"measurement": "Cornified Envelope Assay Mean", "setting": "[5]; [8]", "result": 39627}, {"measurement": "Cornified Envelope assay % control", "setting": "[5]; [8]", "result": 212, "unit": "% control"}, {"measurement": "Cornified Envelope Assay Mean", "setting": "[5]; Table 4, 0.01 μM, low calcium", "result": 22221}, {"measurement": "Cornified Envelope assay % control", "setting": "[5]; Table 4, 0.01 μM, low calcium", "result": 119, "unit": "% control"}, {"measurement": "effect on cornified envelope production", "setting": "[5]; in low calcium, at low concentrations, statement in words", "result": "induces cornified envelope production"}]}]}
